Key:
Quackgrass = assay: Ex32 PRE 2,4-DC + pyroxasulfone + sulfentrazone, % control 28 DAT, Colby; format: in vivo, Elymus repens
Description: Treatments were applied at the time of planting to Italian ryegrass, green foxtail, littleseed canarygrass, wild oat, quackgrass, dandelion, common chickweed, white clover, yellow nutsedge, redroot pigweed, field bindweed, canola, and wheat. […] Flats were watered and fertilized routinely after treatment application.

Sorghum = assay: Ex46 PRE sorghum injury 7, 14, 21, 28 DAT; details: rate in the words
Protocol: Treatments were applied to sorghum at the time of planting using Pennington soil. Each treatment was replicated four times. Soil was watered before and after application for herbicide activation. Plants were watered and fertilized routinely. […] Visual percent crop injury was recorded at 7, 14, 21, and 28 days after treatment using a scale of 0 (no injury) to 100 (complete plant death).

barnyardgrass (BG) = assay: Ex5 PRE greenhouse, % control; format: in vivo, Echinochloa crus-galli; details: 28 DAT, g ai/ha by row: r10-26 2,4-DC 50/100/200 (3 rows each) + mesotrione 25/50/100 (cycling)
Protocol: Test compositions containing 2,4-DC Example 1C and mesotrione (Callisto® Herbicide, 40% active ingredient, Syngenta) and mixtures of 2-(2,4-dichlorophenyl)methyl-4,4-dimethyl-3-isoxazolidinone and mesotrione, were diluted with water to provide the appropriate test rate concentration.
The test weeds were barnyardgrass (BG) (Echinochloa crus-galli), jimsonweed (PA) (Datura stramonium), velvetleaf (VL) (Abutilon theophrasti), common cockelbur (CC) (Xanthium strumarium) and hairy beggarticks (HB) (Bidens pilosa). Crops included in the evaluation were field corn and sorghum.
For pre-emergence testing, four disposable fiber flats (6″ by 10″) for each rate of application of each herbicide solution were filled with top soil, to which seeds of each species were planted in furrows made by a template pressed on the top of the soil. The furrows with seeds were covered with soil and were watered well before application of the test compounds. Flats designated for treatment were placed in a spray chamber having a static platform and a movable sprayer and height of the spray nozzle was 10.5 inches above the soil level. Once the sprayer was calibrated using water for spray volume of 30 gallons per acre, flats were sprayed with sprayer at a speed to receive a coverage equivalent of 30 gallons per acre.
The application rates are those shown in Table 4 below for the individual herbicidal solutions and the herbicide compositions of the present invention. The pre-emergence flats were immediately placed in the greenhouse and watered lightly after treatment. Thereafter they were regularly watered and fertilized for the duration of the test. The control of weeds and injury to crops was evaluated in each experimental test at 28 days after treatment (DAT). […] Percent control was determined by a method similar to the 0 to 100 rating system disclosed in “Research Methods in Weed Science,” 2nd ed., B. Truelove, Ed.; Southern Weed Science Society; Auburn University, Auburn, Ala., 1977.

Common lambsquarters = assay: Ex34 PRE 2,4-DC + napropamide, % control, Colby; format: in vivo, Chenopodium album; details: 28 DAT
Description: (§1) Thereafter flats were watered and fertilized routinely.

[1] = system: weeds; Corn (var. Viking); assay: Ex15 PRE greenhouse; format: in vivo; details: rate in the words
Description: The weeds tested in this study were redroot pigweed (Amaranthus retroflexus, AMARE), Jimsonweed (Datura stramonium, DATST), black nightshade (Solanum nigrum, SOLNI), large crabgrass (Digitaria sanguinalis, DIGSA), Pennsylvania smartweed (Polygonum pensylvanicum, POLPY), horseweed (Conyza canadensis, ERICA), wild buckwheat (Polygonum convolvulus, POLCO). The crop tested was Corn (var. Viking).
To determine PRE efficacy and corn injury, five rates of each 2,4 DC (36.7% CS) and S-metolachlor (Dual II Magnum®, 82.4%) were applied either alone or as tank-mix. 2,4 DC was applied at 0, 125, 170, 210, or 250 g ai/ha and S-metolachlor was applied at 0, 267, 534, 801, or 1070 g ai/ha. Additional treatments included application of premix of pyroxasulfone plus fluthiacet-methyl (Anthem™ 23.3%) at 169.9 g ai/ha and tank-mix of mesotrione (Callisto®, 40%) at 123 g plus S-metolachlor at 1252 g. Treatments were applied just after the planting of large crabgrass, Jimsonweed, black nightshade, redroot pigweed, Pennsylvania smartweed, horseweed, wild buckwheat, and corn.
Flats were watered and fertilized routinely after treatment application. Each treatment was replicated three times. […] Corn injury was rated for bleaching and stunting.

Cheat = assay: Ex18 PRE 2,4-DC + clomazone, % control 28 DAT, Colby; format: in vivo, Bromus secalinus
Description: Additional treatments included application of metazachlor (Butisan®, 43.1%) at 750 g ai/ha, napropamide (Devrinol DF®, 50%) at 1260 g ai/ha, and dimethachlor (Teridox®, 48%) at 1000 g ai/ha. […] Treatments were applied just after the seeding of annual bluegrass, cheat, wild oat, quackgrass, field violet, blackgrass, littleseed canarygrass, silky windgrass, yellow foxtail, and goosegrass. […] Flats were watered and fertilized routinely after treatment application. Each treatment was replicated three times.

Littleseed canarygrass = assay: Ex34 PRE 2,4-DC + napropamide, % control, Colby; format: in vivo, Phalaris minor; details: 28 DAT
Description: as §1

Blackgrass = assay: Ex34 PRE 2,4-DC + napropamide, % control, Colby; format: in vivo, Alopecurus myosuroides; details: 28 DAT
Description: as §1

weeds = assay: Ex18 PRE greenhouse; format: in vivo; details: weed and rate in the words
[2] = system: weeds; cotton, lentil, mung bean, bush bean, and cowpea; assay: Ex33 PRE greenhouse; format: in vivo; details: rate in the words
Description: (§2) ANTHEM® (fluthiacet-methyl, 0.69% plus pyroxasulfone, 22.61%) was included as a standard at labeled rate, Fluthiacet-methyl at 4.9 g ai/ha and pyroxasulfone at 165 g ai/ha. […] The following weeds were screened, Palmer amaranth, Pennsylvania smartweed, velvetleaf, green foxtail, morningglory, Italian ryegrass, prickly sida, and yellow nutsedge. Crops screened were cotton, lentil, mung bean, bush bean, and cowpea. […] Thereafter flats were watered and fertilized routinely.

Pennsylvania smartweed = assay: Ex33 PRE 2,4-DC + fluthiacet-methyl + pyroxasulfone, % control 28 DAT, Colby; format: in vivo, Polygonum pensylvanicum
Description: as §2

What does the source list for CC1(C)CON(Cc2ccc(Cl)cc2Cl)C1=O [2,4-DC, 2-(2,4-dichlorophenyl)methyl-4,4-dimethyl-3-isoxazolidinone]?
X (Quackgrass; 2,4-DC alone 50 g ai/ha): 0%; X (Quackgrass; 2,4-DC alone 100 g ai/ha): 7%; X (Quackgrass; 2,4-DC alone 200 g ai/ha): 10%; sorghum safety in words (Sorghum): safe on sorghum at rates ranging from 31 to 125 g ai/ha irrespective of rating timings; % Control BG (barnyardgrass (BG); r28-30 2,4-DC 50/100/200, r31-33 mesotrione 25/50/100, 50 g ai/ha): 97%; % Control BG (barnyardgrass (BG); r28-30 2,4-DC 50/100/200, r31-33 mesotrione 25/50/100, 100 g ai/ha): 99%; X (Common lambsquarters; 2,4-DC alone 31 g ai/ha): 28%; X (Common lambsquarters; 2,4-DC alone 63 g ai/ha): 43%; X (Common lambsquarters; 2,4-DC alone 125 g ai/ha): 85%; X (Common lambsquarters; 2,4-DC alone 250 g ai/ha): 91%; X (Common lambsquarters; 2,4-DC alone 375 g ai/ha): 93%; weed control / crop safety in words [1]: alone controlled large crabgrass at 170 g ai/ha or 250 g and it was safe on corn at all rate; X (Cheat; 2,4-DC alone 125 g ai/ha): 6%; X (Cheat; 2,4-DC alone 170 g ai/ha): 11%; X (Cheat; 2,4-DC alone 210 g ai/ha): 12%; X (Cheat; 2,4-DC alone 250 g ai/ha): 25%; X (Littleseed canarygrass; 2,4-DC alone 31 g ai/ha): 8%; X (Littleseed canarygrass; 2,4-DC alone 63 g ai/ha): 12%; X (Littleseed canarygrass; 2,4-DC alone 125 g ai/ha): 18%; X (Littleseed canarygrass; 2,4-DC alone 250 g ai/ha): 27%; X (Littleseed canarygrass; 2,4-DC alone 375 g ai/ha): 53%; X (Blackgrass; 2,4-DC alone 31 g ai/ha): 10%; X (Blackgrass; 2,4-DC alone 63 g ai/ha): 18%; X (Blackgrass; 2,4-DC alone 125 g ai/ha): 84%; X (Blackgrass; 2,4-DC alone 250 g ai/ha): 93%; X (Blackgrass; 2,4-DC alone 375 g ai/ha): 97%; weed control in words (weeds): controlled goosegrass at ≥170 g ai/ha; weed control / crop safety in words [2]: controlled prickly sida, at 125 g controlled green foxtail; weed control / crop safety in words ([2]; listed as 2, 4 DC): applied alone PRE was safe on cotton, mung bean, bush bean, and cowpea at all rates, lentil was not safe at any rate; X (Pennsylvania smartweed; 2,4-DC alone 31 g ai/ha): 10%; X (Pennsylvania smartweed; 2,4-DC alone 63 g ai/ha): 23%; X (Pennsylvania smartweed; 2,4-DC alone 125 g ai/ha): 57%; X (Pennsylvania smartweed; 2,4-DC alone 250 g ai/ha): 100%; X (Pennsylvania smartweed; 2,4-DC alone 375 g ai/ha): 99%

Source: patent US12616203B2, “Use of 3-isoxazolidinones compounds as selective herbicides” (FMC Corporation, priority 2014, dated 2026)
